Data: PubChem BioAssay (NCI)
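48-hour exposure; five concentrations; linearly interpolated endpoints. GI50 = concentration required for 50% inhibition of growth. TGI denotes the concentration required for complete inhibition of growth.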

How the values were obtained:
Assay in all cases: DTP human tumour cell line panel, 48 h
A498 renal = tested on: A498 renal
A549 NSCLC = tested on: A549 NSCLC
ACHN renal = tested on: ACHN renal
BT-549 breast = tested on: BT-549 breast
CAKI-1 renal = tested on: CAKI-1 renal
CCRF-CEM leukemia = tested on: CCRF-CEM leukemia
COLO 205 colon = tested on: COLO 205 colon
DU-145 prostate = tested on: DU-145 prostate
EKVX NSCLC = tested on: EKVX NSCLC
HCC-2998 colon = tested on: HCC-2998 colon
HCT-116 colon = tested on: HCT-116 colon
HCT-15 colon = tested on: HCT-15 colon
HL-60(TB) leukemia = tested on: HL-60(TB) leukemia
HOP-62 NSCLC = tested on: HOP-62 NSCLC
HOP-92 NSCLC = tested on: HOP-92 NSCLC
HS 578T breast = tested on: HS 578T breast
HT29 colon = tested on: HT29 colon
IGROV1 ovarian = tested on: IGROV1 ovarian
K-562 leukemia = tested on: K-562 leukemia
KM12 colon = tested on: KM12 colon
LOX IMVI melanoma = tested on: LOX IMVI melanoma
M14 melanoma = tested on: M14 melanoma
MALME-3M melanoma = tested on: MALME-3M melanoma
MCF7 breast = tested on: MCF7 breast
MDA-MB-231 breast = tested on: MDA-MB-231 breast
MOLT-4 leukemia = tested on: MOLT-4 leukemia
NCI-H226 lung = tested on: NCI-H226 lung
NCI-H23 lung = tested on: NCI-H23 lung
NCI-H460 lung = tested on: NCI-H460 lung
NCI-H522 lung = tested on: NCI-H522 lung
NCI/ADR-RES ovarian = tested on: NCI/ADR-RES ovarian
OVCAR-3 ovarian = tested on: OVCAR-3 ovarian
OVCAR-4 ovarian = tested on: OVCAR-4 ovarian
OVCAR-5 ovarian = tested on: OVCAR-5 ovarian
OVCAR-8 ovarian = tested on: OVCAR-8 ovarian
PC-3 prostate = tested on: PC-3 prostate
RPMI-8226 leukemia = tested on: RPMI-8226 leukemia
RXF 393 renal = tested on: RXF 393 renal
SF-268 CNS = tested on: SF-268 CNS
SF-295 CNS = tested on: SF-295 CNS
SF-539 CNS = tested on: SF-539 CNS
SK-MEL-2 melanoma = tested on: SK-MEL-2 melanoma
SK-MEL-28 melanoma = tested on: SK-MEL-28 melanoma
SK-MEL-5 melanoma = tested on: SK-MEL-5 melanoma
SK-OV-3 ovarian = tested on: SK-OV-3 ovarian
SN12C renal = tested on: SN12C renal
SNB-75 CNS = tested on: SNB-75 CNS
SR leukemia = tested on: SR leukemia
SW-620 colon = tested on: SW-620 colon
TK-10 renal = tested on: TK-10 renal
U251 CNS = tested on: U251 CNS
UACC-257 melanoma = tested on: UACC-257 melanoma
UACC-62 melanoma = tested on: UACC-62 melanoma
UO-31 renal = tested on: UO-31 renal

Which GI50 (A498 renal) does the source give for `COc1ccc(C(=O)N2c3ccccc3Sc3ccccc32)c(C(F)(F)F)c1` here?
Its GI50 is 282 nM.

What about the TGI (A498 renal) of the same compound?
The TGI was 877 nM.

What about the GI50 (A549 NSCLC) of the same compound?
Its GI50 is 515 nM.

What about the TGI (A549 NSCLC) of the same compound?
The TGI was > 100000 nM.

And the GI50 (ACHN renal)?
Its GI50 is 1330 nM.

What about the TGI (ACHN renal) of the same compound?
The TGI was > 100000 nM.

And the GI50 (BT-549 breast)?
The GI50 was 892 nM.

What about the TGI (BT-549 breast) of the same compound?
Its TGI is 13600 nM.

What about the GI50 (CAKI-1 renal) of the same compound?
The GI50 was 692 nM.

What about the TGI (CAKI-1 renal) of the same compound?
Its TGI is > 100000 nM.

And the GI50 (CCRF-CEM leukemia)?
Its GI50 is 87.9 nM.

And the TGI (CCRF-CEM leukemia)?
The TGI was > 100000 nM.

What about the GI50 (COLO 205 colon) of the same compound?
The GI50 was 319 nM.

And the TGI (COLO 205 colon)?
The TGI was 1480 nM.

And the GI50 (DU-145 prostate)?
The GI50 was 433 nM.

What about the TGI (DU-145 prostate) of the same compound?
The TGI was > 100000 nM.

What about the GI50 (EKVX NSCLC) of the same compound?
Its GI50 is 613 nM.

And the TGI (EKVX NSCLC)?
The TGI was > 100000 nM.

And the GI50 (HCC-2998 colon)?
Its GI50 is 467 nM.

And the TGI (HCC-2998 colon)?
Its TGI is 32000 nM.

What about the GI50 (HCT-116 colon) of the same compound?
Its GI50 is 505 nM.

And the TGI (HCT-116 colon)?
Its TGI is > 100000 nM.

What about the GI50 (HCT-15 colon) of the same compound?
The GI50 was 405 nM.

What about the TGI (HCT-15 colon) of the same compound?
Its TGI is > 100000 nM.

What about the GI50 (HL-60(TB) leukemia) of the same compound?
The GI50 was 252 nM.

And the TGI (HL-60(TB) leukemia)?
The TGI was 793 nM.

What about the GI50 (HOP-62 NSCLC) of the same compound?
Its GI50 is 684 nM.

And the TGI (HOP-62 NSCLC)?
Its TGI is > 100000 nM.

And the GI50 (HOP-92 NSCLC)?
The GI50 was 152 nM.

What about the TGI (HOP-92 NSCLC) of the same compound?
The TGI was 3910 nM.

And the GI50 (HS 578T breast)?
Its GI50 is 472 nM.

And the TGI (HS 578T breast)?
The TGI was > 100000 nM.

What about the GI50 (HT29 colon) of the same compound?
Its GI50 is 362 nM.

What about the TGI (HT29 colon) of the same compound?
The TGI was > 100000 nM.

And the GI50 (IGROV1 ovarian)?
Its GI50 is 2200 nM.

What about the TGI (IGROV1 ovarian) of the same compound?
The TGI was > 100000 nM.

And the GI50 (K-562 leukemia)?
The GI50 was 349 nM.

And the TGI (K-562 leukemia)?
The TGI was > 100000 nM.

And the GI50 (KM12 colon)?
Its GI50 is 413 nM.

What about the TGI (KM12 colon) of the same compound?
The TGI was 34400 nM.

What about the GI50 (LOX IMVI melanoma) of the same compound?
The GI50 was 516 nM.

And the TGI (LOX IMVI melanoma)?
Its TGI is > 100000 nM.

What about the GI50 (M14 melanoma) of the same compound?
Its GI50 is 343 nM.

And the TGI (M14 melanoma)?
Its TGI is > 100000 nM.

And the GI50 (MALME-3M melanoma)?
The GI50 was 25800 nM.

What about the TGI (MALME-3M melanoma) of the same compound?
Its TGI is > 100000 nM.

And the GI50 (MCF7 breast)?
The GI50 was 411 nM.

What about the TGI (MCF7 breast) of the same compound?
The TGI was > 100000 nM.

And the GI50 (MDA-MB-231 breast)?
The GI50 was 1160 nM.

What about the TGI (MDA-MB-231 breast) of the same compound?
Its TGI is 92200 nM.

And the GI50 (MOLT-4 leukemia)?
The GI50 was 406 nM.

What about the TGI (MOLT-4 leukemia) of the same compound?
The TGI was > 100000 nM.

What about the GI50 (NCI-H226 lung) of the same compound?
Its GI50 is 1390 nM.

What about the TGI (NCI-H226 lung) of the same compound?
The TGI was 83800 nM.

And the GI50 (NCI-H23 lung)?
Its GI50 is 578 nM.

What about the TGI (NCI-H23 lung) of the same compound?
Its TGI is > 100000 nM.

And the GI50 (NCI-H460 lung)?
Its GI50 is 383 nM.

What about the TGI (NCI-H460 lung) of the same compound?
The TGI was > 100000 nM.

And the GI50 (NCI-H522 lung)?
Its GI50 is 320 nM.

And the TGI (NCI-H522 lung)?
Its TGI is 14500 nM.

What about the GI50 (NCI/ADR-RES ovarian) of the same compound?
Its GI50 is 370 nM.

And the TGI (NCI/ADR-RES ovarian)?
Its TGI is > 100000 nM.

What about the GI50 (OVCAR-3 ovarian) of the same compound?
Its GI50 is 332 nM.

What about the TGI (OVCAR-3 ovarian) of the same compound?
Its TGI is 28100 nM.

And the GI50 (OVCAR-4 ovarian)?
Its GI50 is 1980 nM.

What about the TGI (OVCAR-4 ovarian) of the same compound?
The TGI was > 100000 nM.

What about the GI50 (OVCAR-5 ovarian) of the same compound?
Its GI50 is 1610 nM.

And the TGI (OVCAR-5 ovarian)?
Its TGI is > 100000 nM.

What about the GI50 (OVCAR-8 ovarian) of the same compound?
Its GI50 is 593 nM.

What about the TGI (OVCAR-8 ovarian) of the same compound?
The TGI was > 100000 nM.

What about the GI50 (PC-3 prostate) of the same compound?
The GI50 was 426 nM.

And the TGI (PC-3 prostate)?
Its TGI is > 100000 nM.

What about the GI50 (RPMI-8226 leukemia) of the same compound?
The GI50 was 595 nM.

What about the TGI (RPMI-8226 leukemia) of the same compound?
The TGI was > 100000 nM.

What about the GI50 (RXF 393 renal) of the same compound?
The GI50 was 362 nM.

And the TGI (RXF 393 renal)?
The TGI was > 100000 nM.

And the GI50 (SF-268 CNS)?
Its GI50 is 3040 nM.

What about the TGI (SF-268 CNS) of the same compound?
Its TGI is > 100000 nM.

What about the GI50 (SF-295 CNS) of the same compound?
The GI50 was 372 nM.

And the TGI (SF-295 CNS)?
The TGI was > 100000 nM.

What about the GI50 (SF-539 CNS) of the same compound?
The GI50 was 271 nM.

What about the TGI (SF-539 CNS) of the same compound?
The TGI was 995 nM.

What about the GI50 (SK-MEL-2 melanoma) of the same compound?
Its GI50 is 677 nM.

What about the TGI (SK-MEL-2 melanoma) of the same compound?
Its TGI is > 100000 nM.

What about the GI50 (SK-MEL-28 melanoma) of the same compound?
The GI50 was 9170 nM.

And the TGI (SK-MEL-28 melanoma)?
The TGI was > 100000 nM.

What about the GI50 (SK-MEL-5 melanoma) of the same compound?
The GI50 was 692 nM.

What about the TGI (SK-MEL-5 melanoma) of the same compound?
The TGI was 16600 nM.

What about the GI50 (SK-OV-3 ovarian) of the same compound?
Its GI50 is 794 nM.

What about the TGI (SK-OV-3 ovarian) of the same compound?
Its TGI is > 100000 nM.

What about the GI50 (SN12C renal) of the same compound?
Its GI50 is 1300 nM.

And the TGI (SN12C renal)?
Its TGI is > 100000 nM.

What about the GI50 (SNB-75 CNS) of the same compound?
Its GI50 is 264 nM.

What about the TGI (SNB-75 CNS) of the same compound?
The TGI was > 100000 nM.

What about the GI50 (SR leukemia) of the same compound?
The GI50 was 312 nM.

And the TGI (SR leukemia)?
Its TGI is 76900 nM.

What about the GI50 (SW-620 colon) of the same compound?
Its GI50 is 425 nM.

And the TGI (SW-620 colon)?
Its TGI is > 100000 nM.

What about the GI50 (TK-10 renal) of the same compound?
The GI50 was 16700 nM.

And the TGI (TK-10 renal)?
The TGI was > 100000 nM.

What about the GI50 (U251 CNS) of the same compound?
Its GI50 is 500 nM.

And the TGI (U251 CNS)?
Its TGI is > 100000 nM.

What about the GI50 (UACC-257 melanoma) of the same compound?
The GI50 was 13700 nM.

What about the TGI (UACC-257 melanoma) of the same compound?
The TGI was > 100000 nM.

What about the GI50 (UACC-62 melanoma) of the same compound?
The GI50 was 438 nM.

What about the TGI (UACC-62 melanoma) of the same compound?
The TGI was > 100000 nM.

And the GI50 (UO-31 renal)?
The GI50 was 2620 nM.

And the TGI (UO-31 renal)?
The TGI was > 100000 nM.
